{
  "source": "patent US20130109581A1",
  "about": "“POSITIVELY CHARGED SPECIES AS BINDING REAGENTS IN THE SEPARATION OF PROTEIN AGGREGATES FROM MONOMERS” (priority 2009, published 2013)",
  "key": {"[1]": {"target": "T1, Aβ42 Fibrils (Homo sapiens, UniProt P05067)", "T1 construct": "The Ab42 aggregates were prepared as previously described", "assay": "Misfolded Protein Assay, LoD and capture in CSF: fibrils", "format": "binding", "details": "for LoD: spiked into CSF", "method": "(§1) The Ab42 aggregates were prepared as previously described: fibrils were prepared per Stine et al (JBC 2003, 278, p11612), globulomers were prepared per Barghorn et al (J Neurology 2005 95 p834), ADDLs were prepared per Lambert et al (PNAS 1998, 95 p6448), and ASPDs were prepared per Noguchi et al (JBC 2009 284 p32895). Normal CSF was pooled from clinically characterized non-demented patient CSF samples. AD CSF was pooled from clinically-characterized AD patient samples. Alzheimer's Disease Brain Homogenate (ADBH) was prepared by sonication of clinically diagnosed AD patient brain samples in 0.2M.sucrose (1:10 w/v).\n(§2) For the capture assay (Misfolded Protein Assay), aliquots of the beads (30 ul) were added to wells of a 96 well plate, followed by 125 ul of sample in 80:20 CSF:TBSTT. The plate was sealed and incubated for 1 h at 37 C with shaking. The plate was washed with TBST and the residual buffer removed. A denaturing solution (0.1 N NaOH) was added to each well and the plate heated to 80 C. for 30 min with shaking. After cooling the plate to RT, a neutralizing buffer (0.12 M NaH2PO3-0.4% TW20,) was added and the plate shaken briefly at RT. The assay was analyzed using the triplex Mesoscale Discovery ELISA kit for Aβ. The Aβ in the samples eluted from the beads were detected per the manufacturer's protocol.\nFor the Limit of Detection (LoD) studies, serial dilutions of each aggregate were spiked into CSF and were assayed per the protocol described above. The LoD was defined as 2× over background levels.\nThis pattern minors the capture selectivity observed when these species are tested with 3 ul of PSR1 beads and 1 ng/mL of aggregate."}, "[2]": {"target": "T2, E22K globulomer (beta amyloid 1-42, Italian mutation) (Homo sapiens, UniProt P05067, E693K)", "T2 construct": "Three beta amyloid 1-42 peptides were generated to test the role of E22; purchased Anaspec", "assay": "NMPA capture of E22K globulomer", "format": "binding", "details": "positively charged mutant; FIG. 10", "description": "Three beta amyloid 1-42 peptides were generated to test the role of E22: a wild-type peptide, a mutant peptide containing Arctic mutation E22G with a neutral charge, and a mutant peptide containing Italian mutation E22K with a positive charge. Synthetic peptides were commercially available from Anaspec.\nMutant peptides were oligomerized according to the methods described in Example 3."}, "[3]": {"test_system": "Alzheimer's Disease Brain Homogenate (ADBH) Aβ aggregates", "assay": "Misfolded Protein Assay, LoD in CSF: ADBH", "format": "binding, human", "details": "spiked into CSF", "method": "as §1\nas §2, with “protocol. […]” for “protocol.”"}, "[4]": {"target": "alpha synuclein fibrils (Homo sapiens, UniProt P37840)", "assay": "MPA of alpha-synuclein fibrils in CSF or plasma", "format": "binding", "method": "Amylin fibrils were prepared as reported in J. Biological Chem. (1999) 274, No. 28, pp 19509-19512. To denature the fibrils, samples were treated with 5.4 M guanidine thiocyanate for 30 minutes at room temperature. The samples were then diluted to the indicated concentrations and alpha synuclein was detected by a sandwich ELISA (Invitrogen; catalog #KHB0061) according to the manufacturer's instructions.\nThe specificity of PSR1 beads for aggregated alpha synuclein was tested by incubating 3 ul PSR1 beads with fibrillar alpha-synuclein with or without a pretreatment with chemical denaturant (5.4 M guanidine thiocyanate for 30 minutes at room temperature). Alpha synuclein was diluted into 125 ul 80% CSF or plasma in TBSTT (50 mM Tris, 150 mM NaCl, 1% TritonX-100, 1% Tween20) at the indicated concentrations. Samples were incubated for 1 hour at 37 C and 550 rpm before washing with TBS 0.05% Tween20 buffer. Bound alpha synuclein was eluted from the beads with 4 ul 6 M guanidine thiocyanate (30 minutes at room temperature), diluted with 246 ul ELISA diluent buffer and then detected by sandwich ELISA (Invitrogen; catalog #KHB0061)."}, "[5]": {"target": "T3, oligomeric beta amyloid 1-42 (globulomer) (Homo sapiens, UniProt P05067)", "T3 construct": "beta amyloid (1-42) was monomerized with incubation in hexafluoroisopropanol", "assay": "Misfolded Protein Assay: capture of globulomer spiked into CSF (Example 2)", "format": "binding", "details": "conjugated to cellulose membrane; loading approximately 100× higher than on beads"}, "[6]": {"target": "PrP^Sc (Mesocricetus auratus, UniProt P04273)", "sequence (P04273 23-231 limits assumed)": "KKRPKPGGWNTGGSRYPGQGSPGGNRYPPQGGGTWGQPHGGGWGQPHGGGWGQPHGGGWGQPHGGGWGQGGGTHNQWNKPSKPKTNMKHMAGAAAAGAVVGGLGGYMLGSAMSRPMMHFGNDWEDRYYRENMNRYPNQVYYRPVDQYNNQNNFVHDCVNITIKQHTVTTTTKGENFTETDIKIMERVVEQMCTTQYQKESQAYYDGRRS"}, "[7]": {"target": "T4, Aβ42 Monomer (Homo sapiens, UniProt P05067)", "T4 construct": "The Ab42 aggregates were prepared as previously described", "assay": "Misfolded Protein Assay, Limit of Detection in CSF: monomer", "format": "binding", "details": "spiked into CSF; LoD = 2× over background", "method": "as §1\nas §2, with “protocol. […]” for “protocol.”"}},
  "note": "Values joined by “and” are separate entries in the source; they are usually repeats but may differ in a detail not shown here. Identical values can stand only once.",
  "data": [
    {"substance": "Nab-Nab-Nab-Nbn-Nab-Nbn [PSR1]", "values": [
      {"measurement": "capture of Fibril", "setting": "[1]; 3 ul of beads and 1 ng/mL of aggregate", "result": 3636},
      {"measurement": "LoD", "setting": "[1]", "result": "<2", "unit": "amol"},
      {"measurement": "LoD", "setting": "[1]; LoD = 2× over background", "result": "~50 pg/mL and 50 pg/mL"},
      {"measurement": "capture of E22K globulomer", "setting": "[2]", "result": "captured efficiently"},
      {"measurement": "LoD", "setting": "[3]", "result": "<0.2", "unit": "amol"},
      {"measurement": "binding to alpha synuclein fibrils compared to control bead", "setting": "[4]; diluted into CSF or plasma, FIG. 50", "result": "specifically bound to alpha synuclein (aSyn) fibrils"},
      {"measurement": "binding to alpha synuclein fibrils vs monomers", "setting": "[4]; native vs denatured aSyn in CSF or plasma, FIG. 51", "result": "bound preferentially to alpha synuclein fibrils"},
      {"measurement": "ability to bind preferentially to oligomers in solution", "setting": "[5]", "result": "continued to increase the ability of PSR1 to bind preferentially to oligomers in solution"},
      {"measurement": "PrP^Sc capture signal", "setting": "[6]", "result": "Signal was observed with the 100 or 300 ng/mL spike levels"},
      {"measurement": "LoD", "setting": "[7]", "result": "~1000", "unit": "pg/mL"}
    ]}
  ]
}
